# Data published in patent US9387216B2, “Biomarkers for treatment of neoplastic disorders using androgen-targeted therapies” (Tokai Pharmaceuticals, Inc., priority 2013, dated 2016).
# Like-named read-outs stand apart in the source and are kept apart here.
# Columns and labels:
# [1] = tested on: LuCaP136 castration resistant xenograft tumors which express AR-V7; assay: Xenograft model of CRPC in mice (LuCaP136); type: in vivo
# Method: Galeterone was tested in a xenograft model of CRPC in mice. […] AR-V7 was detected in LuCaP136 castration resistant xenograft tumors using RT-PCR.
# AR activity = assay: AR luciferase assay; type: cell-based
# full-length AR and AR-V7 = target: T1, full-length AR and AR-V7 (Homo sapiens, UniProt P10275, H875Y); type: cell-based
# T1 construct: CWR22rv1 cell line which constitutively expresses both AR and AR-V7; endogenous in cells; host or cells: CWR22rv1
# T1 sequence (P10275 1-920 H875Y): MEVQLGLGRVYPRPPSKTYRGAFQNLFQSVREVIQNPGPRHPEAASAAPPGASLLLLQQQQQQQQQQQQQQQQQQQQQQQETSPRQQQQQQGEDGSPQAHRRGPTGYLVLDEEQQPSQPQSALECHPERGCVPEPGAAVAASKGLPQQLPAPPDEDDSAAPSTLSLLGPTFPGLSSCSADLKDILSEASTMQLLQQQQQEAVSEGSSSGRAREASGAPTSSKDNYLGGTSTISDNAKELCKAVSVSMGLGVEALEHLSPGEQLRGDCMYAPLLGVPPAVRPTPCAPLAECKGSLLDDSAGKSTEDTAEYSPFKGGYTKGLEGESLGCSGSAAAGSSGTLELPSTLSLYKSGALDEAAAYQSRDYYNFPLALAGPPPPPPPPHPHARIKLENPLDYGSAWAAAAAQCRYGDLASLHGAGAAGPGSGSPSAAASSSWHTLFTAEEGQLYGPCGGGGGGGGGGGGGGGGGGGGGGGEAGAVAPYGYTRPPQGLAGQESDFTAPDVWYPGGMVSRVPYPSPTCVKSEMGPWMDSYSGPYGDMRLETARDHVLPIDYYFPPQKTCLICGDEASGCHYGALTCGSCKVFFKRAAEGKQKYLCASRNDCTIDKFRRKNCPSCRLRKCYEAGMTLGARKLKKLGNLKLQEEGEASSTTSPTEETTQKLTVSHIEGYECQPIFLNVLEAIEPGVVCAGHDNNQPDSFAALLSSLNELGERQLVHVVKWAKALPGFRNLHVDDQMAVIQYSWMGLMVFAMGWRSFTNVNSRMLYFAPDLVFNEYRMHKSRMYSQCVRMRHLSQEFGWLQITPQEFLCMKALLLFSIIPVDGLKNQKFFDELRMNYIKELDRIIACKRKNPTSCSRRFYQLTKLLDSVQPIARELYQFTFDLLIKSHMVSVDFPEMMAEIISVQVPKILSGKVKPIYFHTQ
# Method: An experiment to detect expression of full-length AR and AR-V7 variant proteins was conducted in a CWR22rv1 cell line which constitutively expresses both AR and AR-V7. […] See also FIG. 4.
# [2] = tested on: AR-dependent gene expression; assay: AR-dependent gene expression in cells with wild-type AR and AR point mutations; type: cell-based
# From the text: These cells also express AR receptors with F876L mutation.
# CYP17 lyase = target: T2, CYP17 lyase (Homo sapiens, UniProt P05093); settings: steroidogenic pathway; cited from earlier work
# T2 sequence (P05093 1-508): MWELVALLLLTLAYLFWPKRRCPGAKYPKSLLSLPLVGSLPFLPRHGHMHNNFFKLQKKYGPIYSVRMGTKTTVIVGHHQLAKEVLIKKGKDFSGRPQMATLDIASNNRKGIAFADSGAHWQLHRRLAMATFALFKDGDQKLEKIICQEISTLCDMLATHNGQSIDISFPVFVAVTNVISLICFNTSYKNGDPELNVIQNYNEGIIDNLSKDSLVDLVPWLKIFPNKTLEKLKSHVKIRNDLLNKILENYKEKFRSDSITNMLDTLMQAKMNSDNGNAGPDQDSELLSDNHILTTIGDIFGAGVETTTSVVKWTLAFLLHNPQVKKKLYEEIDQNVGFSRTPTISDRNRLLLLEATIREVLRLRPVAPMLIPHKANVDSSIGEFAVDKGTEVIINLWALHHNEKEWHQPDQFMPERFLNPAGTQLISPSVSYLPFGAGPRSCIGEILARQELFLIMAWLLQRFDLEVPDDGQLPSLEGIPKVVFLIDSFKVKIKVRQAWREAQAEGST
# PSA levels = assay: PSA response of CRPC patients by AR C-terminal status; type: in vivo, human; settings: for maximal reductions in PSA levels: patients with AR C-terminal loss
# Method: A group of six patients naive to previous CRPC therapy was analyzed with respect to AR status. Four of the six patients were identified as having AR receptors with a C-terminal loss as determined by the evaluation of C-terminal androgen receptor expression in relation to N-terminal androgen receptor expression. All four of the patients having this AR variant had maximal reductions in PSA levels of at least 50%.
# [3] = tested on: AR and prostate-specific antigen (PSA) protein expression; assay: AR and PSA protein expression (western blot) in LNCaP and Enzalutamide resistant cells; type: cell-based
# AR nuclear translocation = AR nuclear translocation by immunocytochemistry / immunofluorescence; type: cell-based
# CWR22rv1 cell line = assay: Cell proliferation in CWR22rv1 cell line; type: cell-based
# [4] = tested on: LNCaP cells, CRPC cells, Enzalutamide resistant cell lines 49F and 49C; assay: Crystal violet and MTT proliferation/viability assays in LNCaP, CRPC and Enzalutamide resistant (49C, 49F) cells; type: cell-based
# [5] = cited from earlier work
# [6] = enzalutamide-responsive CPRC cell line
# [7] = patients expressing AR-V7 mRNA in circulating tumor cells
smiles,measurement,setting,value
"C[C@]12CC[C@H](O)CC1=CC[C@@H]1[C@@H]2CC[C@]2(C)C(n3cnc4ccccc43)=CC[C@@H]12 [Galeterone, 3-β-Hydroxyl 17-(1H-benzimidazol-1-yl)androsta-5,16-diene]",response of castration resistant tumors which express AR-V7,[1],respond
same,AR activity (luciferase),AR activity; Enzalutamide resistant cell lines 49C and 49F,reduced AR activity in all three cell lines
same,AR activity (luciferase),AR activity; [6],reduced AR activity in all three cell lines
same,AR activity (summary),AR activity; summary of the data,strongly inhibits AR activity
same,abiraterone and enzalutamide resistance due to AR splice variants,full-length AR and AR-V7,successfully overcomes abiraterone and enzalutamide resistance due to AR splice variants
same,AR-dependent gene expression,[2],reduces AR-dependent gene expression
same,inhibition of CYP17 lyase,CYP17 lyase,potent inhibitor
same,maximal reductions in PSA levels,PSA levels; 12 weeks at 2550 mg daily,at least 50%
same,maximal reductions in PSA levels,"PSA levels; 12 weeks at 2550 mg daily, listed as galeterone",> 50%
same,patients with maximal PSA response,PSA levels; patients with C-terminal AR loss,4/4
same,reduction in PSA,"PSA levels; two patients without loss of the AR C-terminal domain, 12 weeks at 2550 mg daily",did not respond as strongly
same,AR and PSA protein expression levels,[3]; Enzalutamide resistant cell line,still observed in resistant cells
same,AR and PSA protein expression levels,[3]; LNCaP cells,induced a greater reduction in AR and prostate-specific antigen (PSA) protein expression
same,"AR nuclear translocation (immunofluorescence, FIG. 15B)",AR nuclear translocation; cytoplasmic vs nuclear green staining vs. control,reduces AR nuclear translocation
same,cell proliferation,CWR22rv1 cell line,reduces cell proliferation
same,anti-proliferative effects,"[4]; crystal violet and MTT assays, LNCaP cells, CRPC cells, Enzalutamide resistant cells",had anti-proliferative effects
same,castration-resistant LNCaP growth and enzalutamide-resistant cell growth in vitro,[4]; summary of the data,suppresses castration-resistant LNCaP growth as well as enzalutamide-resistant cell growth
"C[C@]1(O)CC[C@H]2[C@@H]3CCC4=CC(=O)CCC4=C3C=C[C@@]21C [Compound R1881, reference compound]",AR translocation to the nucleus,AR nuclear translocation,caused robust AR translocation to the nucleus
"CNC(=O)c1ccc(N2C(=S)N(c3ccc(C#N)c(C(F)(F)F)c3)C(=O)C2(C)C)cc1F [Enzalutamide, reference compound]",AR activity (luciferase),AR activity; [6],reduced AR activity
same,patients for which PSA levels dropped by 50%,[5]; AR-V7 negative patients,53%
same,time to progression,[5]; AR-V7 negative patients,6.1 months
same,PSA decline,[5]; [7],no PSA decline
same,time to progression,[5]; [7],2.1 months
same,AR and PSA protein expression levels,[3]; LNCaP cells,reduced AR and PSA protein expression levels
